This is an account of results in US6645479B1, “Targeted delivery of active/bioactive and perfuming compositions” (International Flavors & Fragrances Inc., priority 1997, dated 2003).

The nature of one data set: Vapor pressure of fragrance components.
Settings: not given
As to `CC(C=O)Cc1ccc(C(C)C)cc1` (stereo not shown) [cyclamal], the “Vapor Pressure mm/Hg at 25° C.” value was determined as 0.004 mm/Hg. Consider `CC(=O)c1cc2c(cc1C)C(C)(C)C(C)CC2(C)C` (stereo not shown) [TONALID ®], for which the “Vapor Pressure mm/Hg at 25° C.” value came out at 0.0001 mm/Hg.

For the compound `CC(=O)/C=C/C1=C(C)CCCC1(C)C` [β-ionone], the “Vapor Pressure mm/Hg at 25° C.” value stood at 0.006 mm/Hg. Same read-out and setting: then `C=CC(C)(O)CCC=C(C)C` (stereo not shown) [linalool], with 0.05 mm/Hg; and `CCCCCCCCCC(C)C=O` (stereo not shown) [methyl nonyl acetaldehyde], with 0.009 mm/Hg; and `OCCc1ccccc1` [β-phenyl ethyl alcohol], with 0.02 mm/Hg. As for `CC(C=O)Cc1ccc(C(C)(C)C)cc1` (stereo not shown) [LILIAL ®], the “Vapor Pressure mm/Hg at 25° C.” value came to 0.003 mm/Hg. For `C=CCOC(=O)COCCC(C)C` [allyl amyl glycolate], the “Vapor Pressure mm/Hg at 25° C.” value is reported as 0.07 mm/Hg.

Take `CC12CCC(CC1=O)C2(C)C` (stereo not shown) [camphor]: the “Vapor Pressure mm/Hg at 25° C.” value is given as 0.1 mm/Hg. For the compound `CC/C=C\CCOC(=O)c1ccccc1O` [cis-3-hexenyl salicylate], the “Vapor Pressure mm/Hg at 25° C.” value is on record as 0.0008 mm/Hg. Regarding `C=CC(C)CCCC(C)(C)O` (stereo not shown) [dihydromyrcenol], the “Vapor Pressure mm/Hg at 25° C.” value is 0.09 mm/Hg. For the compound `CC1(C)[C@H]2CC[C@]1(C)[C@H](O)C2` [l-borneol], the “Vapor Pressure mm/Hg at 25° C.” value came out at 0.02 mm/Hg.

For peach aldehyde coeur, the “Vapor Pressure mm/Hg at 25° C.” value is reported as 0.002 mm/Hg. For the compound `CC(=O)O[C@@H]1C[C@H]2CC[C@]1(C)C2(C)C` (racemic) [isobornyl acetate], the “Vapor Pressure mm/Hg at 25° C.” value came to 0.09 mm/Hg. With `CC1=CCC(C(C)(C)O)CC1` (stereo not drawn) [α-terpineol], the “Vapor Pressure mm/Hg at 25° C.” value was found to be 0.02 mm/Hg. The same measure, in the same setting: then `CCCCCCC(C=O)=Cc1ccccc1` [hexyl cinnamic aldehyde], with 0.0003 mm/Hg; and `CC(=O)OCc1ccccc1` [benzyl acetate], with 0.1 mm/Hg; and `CC(=O)OC1CCC(C(C)(C)C)CC1` (stereo not shown) [VERTENEX ® HC], with 0.03 mm/Hg.

On to `CC1=CC(C)C(C=O)CC1` (stereo not shown), for which the “Vapor Pressure mm/Hg at 25° C.” value is on record as 0.3 mm/Hg. In the case of `CC(=O)C1(C)CC2=C(CCCC2(C)C)CC1C` (stereo not shown) [ISO E SUPER ®], the “Vapor Pressure mm/Hg at 25° C.” value came out at 0.002 mm/Hg. With `CC/C=C\CCOC(C)=O` [cis-3-hexenyl acetate], the “Vapor Pressure mm/Hg at 25° C.” value was 2.0 mm/Hg. The same measure, in the same setting: then `C=CC(C)(CCC=C(C)C)OC(C)=O` (stereo not shown) [linalyl acetate], with 0.07 mm/Hg; and `CC(C)=CCCC(C)CCO` (stereo not shown) [citronellol], with 0.009 mm/Hg; and `C=CCc1ccc(OC)cc1` [methyl chavicol], with 0.09 mm/Hg. On to `CC(=O)OC(C)c1ccccc1` (stereo not shown) [styralyl acetate], for which the “Vapor Pressure mm/Hg at 25° C.” value is reported as 0.1 mm/Hg.

The nature of a further data set: IFF permeation test: permeation rate through wax or polymer matrix. Particulars: matrix: carnauba wax.
Text: Referring to FIGS. 4A and 4B, fluid 46 is located in jar 44. Jar 44 has sidearm 45. The fluid 46 reaches fluid level 47. Directly in line with fluid level 47 is membrane 41. The diffusion membrane 41 is held in place with flanges 43 and jar lip 42, using bolts 401a and 401b which secures the flange in place. The sidearm 45 is closed using closure 49. The permeability apparatus is shown using reference numeral 40. The IFF permeability test is based on the use of the apparatus of FIGS. 4A and 4B. The weight of membrane 41 is taken, initially, before being placed within the flange 43 and the jar lip 42. Substance 46 for which the permeability is to be measured is placed into jar 44 to fluid level 47. The apparatus containing fluid 46 remains in place for a fixed period of time. At the end of that period of time, bolts 401a and 401b as well as 401c are loosened, the flange 43 removed and membrane 41 is removed and weighed, thereby gathering sufficient data to determine the permeability of the particular substance 46. […] The Y axis measures weight loss and is indicated by reference numeral 54.
Turning to `C/C=C(\C)C(=O)OCC` [ethyl tiglate], the “permeation rate through matrix material” value is listed as 4.4 × 10^−4.

Staying with this data set, now noted: matrix: polyamide (MACROMELT 6030).
With `C/C=C(\C)C(=O)OCC` [ethyl tiglate], the “permeation rate through matrix material” value is on record as 4.2 × 10^−4.

Staying with this data set, now noted: matrix: polyethylene wax, molecular weight 500.
`C/C=C(\C)C(=O)OCC` [ethyl tiglate]: the “permeation rate through matrix material” value is given as 2.0 × 10^−5.
